Measured values: the supplement of paper PMC10307832

How the values were obtained:
Assay in all cases: relative viability (nuclei count vs DMSO), 5 days (fraction); higher = more cells survive
[1] = compound: COc1cc(Nc2c(C#N)cnc3cc(OCCCN4CCN(C)CC4)c(OC)cc23)c(Cl)cc1Cl [Bosutinib] + NC(=O)Nc1cc(-c2cccc(F)c2)sc1C(=O)N[C@H]1CCCNC1 [AZD7762] (partner 0.2 µM)
In short: (§1)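 A single step with final 0.05% Triton X-100, 1% formaldehyde and 1 ug/ml Hoechst fixed the cells and stained nuclei 5 days after treatment. Lung cancer cell lines in 1536-well plates had been treated by pin tool the day after seeding with one drug alone or a fixed anchor-drug dose plus five library-drug doses (not always all listed) in √10 steps, and nuclei were counted on 4× images. Relative viability is the ratio of nuclei in treated wells to nuclei in vehicle wells, taken as the median of duplicate plates.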

[2] = compound: COc1cc(Nc2c(C#N)cnc3cc(OCCCN4CCN(C)CC4)c(OC)cc23)c(Cl)cc1Cl [Bosutinib] + CS(=O)(=O)N1CCN(Cc2cc3nc(-c4cccc5[nH]ncc45)nc(N4CCOCC4)c3s2)CC1 [Pictilisib] (partner 1 µM)
In short: as §1

[3] = compound: COc1cc(Nc2c(C#N)cnc3cc(OCCCN4CCN(C)CC4)c(OC)cc23)c(Cl)cc1Cl [Bosutinib] + CC(=O)Nc1cccc(-n2c(=O)n(C3CC3)c(=O)c3c(Nc4ccc(I)cc4F)n(C)c(=O)c(C)c32)c1 [Trametinib] (partner 0.02 µM)
In short: as §1

[4] = compound: COc1cc(Nc2c(C#N)cnc3cc(OCCCN4CCN(C)CC4)c(OC)cc23)c(Cl)cc1Cl [Bosutinib] + C[C@@H](Oc1cc(-c2cnn(C3CCNCC3)c2)cnc1N)c1c(Cl)ccc(F)c1Cl [Crizotinib] (partner 1 µM)
In short: as §1

[5] = compound: COc1cc(Nc2c(C#N)cnc3cc(OCCCN4CCN(C)CC4)c(OC)cc23)c(Cl)cc1Cl [Bosutinib] + O=C(c1cc(Cc2n[nH]c(=O)c3ccccc23)ccc1F)N1CCN(C(=O)C2CC2)CC1 [Olaparib] (partner 8 µM)
In short: as §1

Cell Line	relative viability ([1]; first compound 0.01 µM)	relative viability ([1]; first compound 0.03162 µM)	relative viability ([1]; first compound 0.1 µM)	relative viability ([1]; first compound 1 µM)	relative viability ([2]; first compound 0.01 µM)	relative viability ([2]; first compound 0.03162 µM)	relative viability ([2]; first compound 0.1 µM)	relative viability ([2]; first compound 1 µM)	relative viability ([3]; first compound 0.01 µM)	relative viability ([3]; first compound 0.03162 µM)	relative viability ([3]; first compound 0.1 µM)	relative viability ([3]; first compound 1 µM)	relative viability ([4]; first compound 0.01 µM)	relative viability ([4]; first compound 0.03162 µM)	relative viability ([4]; first compound 0.1 µM)	relative viability ([4]; first compound 1 µM)	relative viability ([5]; first compound 0.01 µM)	relative viability ([5]; first compound 0.03162 µM)	relative viability ([5]; first compound 0.1 µM)	relative viability ([5]; first compound 1 µM)
LCLC-97TM1	0.31	0.286	0.315	0.191	0.182	0.221	0.254	0.267	0.201	0.209	0.192	0.179	0.369	0.494	0.443	0.414	0.41	0.402	0.372	0.351
NCI-H2170	0.922	0.924	0.819	0.801	0.348	0.359	0.301	0.271	0.93	0.896	0.948	0.946	1.25	1.14	1.15	1.06	0.529	0.571	0.539	0.499
NCI-H1993	0.759	0.778	0.847	0.672	0.827	0.896	0.967	0.741	0.461	0.513	0.579	0.538	0.816	0.875	0.686	0.602	0.988	0.996	1.04	1.01
NCI-H460	0.645	0.576	0.482	0.415	0.38	0.353	0.321	0.299	0.17	0.135	0.157	0.0941	0.85	0.884	0.859	0.639	0.388	0.407	0.392	0.414
NCI-H1975	0.742	0.711	0.642	0.559	0.283	0.318	0.338	0.253	0.29	0.329	0.42	0.322	0.926	0.965	1.01	0.849	0.71	0.784	0.794	0.56
RERF-LC-KJ	0.979	0.982	1.07	0.877	0.544	0.581	0.576	0.459	0.733	0.809	0.902	0.826	0.863	0.827	0.846	0.88	0.883	0.867	0.958	0.989
NCI-H322M	0.609	0.534	0.546	0.52	0.469	0.495	0.525	0.485	0.486	0.481	0.492	0.361	1.08	0.949	0.968	1	0.762	0.758	0.741	0.492
NCI-H1651	0.473	0.515	0.443	0.441	0.579	0.62	0.62	0.687	0.805	0.801	0.829	0.757	0.783	0.89	0.888	0.773	0.184	0.189	0.184	0.201
HARA	0.304	0.308	0.297	0.644	0.442	0.453	0.45	0.352	0.943	0.745	0.633	0.57	1.14	0.955	0.995	0.642	0.896	0.825	0.761	0.515
H3255	0.846	1.02	0.949	0.517	0.488	0.49	0.44	0.235		0.578	0.63	0.422	0.901	0.855	0.853	0.354	0.568	0.56	0.598	0.421
NCI-H441	1.3	1.02	1.05	1.09	0.669	0.483	0.634	0.459	0.509	0.476	0.436	0.379	0.909	0.705	0.808	1.3	0.431	0.562	0.755	0.678
CAL-12T	0.576	0.529	0.596	0.515	0.31	0.496	0.46	0.409	0.28	0.366	0.334	0.234	0.543	0.7	0.638	0.362	0.704	0.665	0.64	0.766
NCI-H1792	0.641	0.543	0.778	0.273	0.299	0.27	0.367	0.332	0.478	0.416	0.437	0.316	0.984	0.978	0.981	1	0.525	0.312	0.548	0.273
